Several values for one entry are separate records, joined by “and”; a condition that tells them apart may be missing. Identical values can stand only once.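 Grown in 96-well plates, cells were treated for 48 hours with each compound at five concentrations. Insufficient inhibition: endpoint recorded as highest concentration tested. GI50 marks 50% less growth. TGI is the concentration that stops growth completely.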
Experiments:
Test in all cases: NCI anticancer screen, dose series, 48 h
[1] = tested on: MALME-3M melanoma
[2] = tested on: KM12 colon
[3] = tested on: UO-31 renal
[4] = tested on: DU-145 prostate
[5] = tested on: SK-MEL-28 melanoma
[6] = tested on: HS 578T breast
[7] = tested on: UACC-62 melanoma
[8] = tested on: MDA-MB-435
[9] = tested on: T-47D breast
[10] = tested on: PC-3 prostate

| SMILES | GI50 [1] | TGI [1] | GI50 [2] | TGI [2] | GI50 [3] | TGI [3] | GI50 [4] | TGI [4] | GI50 [5] | TGI [5] | GI50 [6] | TGI [6] | GI50 [7] | TGI [7] | GI50 [8] | TGI [8] | GI50 [9] | TGI [9] | GI50 [10] | TGI [10] |
| --- | --- | --- | --- | --- | --- | --- | --- | --- | --- | --- | --- | --- | --- | --- | --- | --- | --- | --- | --- | --- |
| COc1cc(-c2nn(-c3cccc(NC(=O)CCN4CCN(c5ccccc5)CC4)c3)cc2-c2ccncc2)ccc1Cl | 2.73 µM | 14.3 µM | 2.45 µM | 9.97 µM | 2.9 µM | 48 µM | 4.35 µM | > 100 µM | 3.19 µM | > 100 µM | 4.61 µM | > 100 µM | 2.49 µM | 8.01 µM | 2.57 µM | 13 µM | 2.09 µM | > 100 µM | 3.1 µM | > 100 µM |
| CN1CC[C@H](c2c(O)cc(O)c3c(=O)cc(-c4ccccc4Cl)oc23)[C@H](O)C1 | 0.154 µM | 0.594 µM |  | > 10 µM | 0.0662 µM | > 10 µM | 0.075 µM | > 10 µM |  | 1.3 µM | 0.0618 µM | 0.398 µM | 0.0515 µM | 0.164 µM | 0.0712 µM | 0.26 µM | 0.0737 µM | > 2.84 µM | 0.0776 µM | > 2.59 µM |
| COc1cc2c3cc1Oc1c(OC)c(OC)cc4c1C(Cc1ccc(O)c(c1)Oc1ccc(cc1)CC3N(C)CC2)N(C)CC4 (stereo unspecified) | 8.17 µM | > 100 µM and 23.8 µM | 14.2 µM | 65.8 µM and 31.8 µM | 13.9 µM | 35.7 µM and 31.9 µM | 18.2 µM | > 100 µM and 84.4 µM | 8.49 µM | > 100 µM and 23.1 µM | 15.3 µM | 55.3 µM and 43.4 µM |  | > 100 µM and 29.2 µM | 6.7 µM | 19.8 µM | 15 µM | 75.7 µM and 36.2 µM | 23.4 µM | > 100 µM |
| CCOC(=O)[C@@H]1CSC(CC)=C(C(=O)O)N1 | > 100 µM | > 100 µM | > 100 µM | > 100 µM | > 100 µM | > 100 µM | > 100 µM | > 100 µM | > 100 µM | > 100 µM | > 100 µM | > 100 µM | > 100 µM | > 100 µM | > 100 µM | > 100 µM | > 100 µM | > 100 µM | > 100 µM | > 100 µM |
| C#C[C@]1(O)CC[C@H]2[C@@H]3CC=C4c5nc(N)sc5CC[C@]4(C)[C@H]3CC[C@@]21C | 2.83 µM | 8.98 µM | 3.49 µM | 16.1 µM | 2.68 µM | 10.5 µM | 5.19 µM | 20.8 µM | 1.9 µM | 4.67 µM | 2.55 µM | 7.94 µM | 2.05 µM | 5.2 µM | 2.22 µM | 7.2 µM | 3.98 µM | 29.7 µM | 3.66 µM | 19.7 µM |
| O=C(O)c1ccccc1NCn1c(=S)sc2ccccc21 |  | > 100 µM |  | > 100 µM |  | > 100 µM |  | > 100 µM |  | > 100 µM |  | > 100 µM |  | > 100 µM |  | > 100 µM |  | > 100 µM |  | > 100 µM |
| N#[N+]c1ccc(Nc2ccccc2)cc1 | > 50 µg/mL | > 50 µg/mL | 3.11 µg/mL | > 50 µg/mL | > 50 µg/mL | > 50 µg/mL | > 50 µg/mL | > 50 µg/mL | > 50 µg/mL | > 50 µg/mL | > 50 µg/mL | > 50 µg/mL | > 50 µg/mL | > 50 µg/mL | 1.83 µg/mL | 17.7 µg/mL | > 50 µg/mL | > 50 µg/mL | > 50 µg/mL | > 50 µg/mL |
| COc1cc2ncnc(Oc3cccc(NC(=O)Nc4cc(C(C)(C)C(F)(F)F)on4)c3)c2cc1OC | 0.0645 µM and 0.0851 µM | 0.929 µM and 1.17 µM | 3.4 µM and 5.28 µM | 14 µM and > 10 µM | 0.552 µM and 0.788 µM | 10.1 µM and > 7.68 µM | 3.31 µM and 3.84 µM | > 58.5 µM | 0.179 µM and 0.201 µM | 8.03 µM and 3.58 µM | 1.77 µM and 1.47 µM | 10.2 µM and > 7.23 µM | 0.0628 µM and 0.0978 µM | 1.59 µM and 1.34 µM | 0.335 µM and 0.484 µM | 5.74 µM and > 10 µM | 1.96 µM and 1.67 µM | 11.7 µM and > 10 µM | 2.65 µM and 3.68 µM | 19.4 µM and > 10 µM |
| COc1ccc(-c2cc(/C=C/C(=O)c3ccc(N)cc3)[nH]n2)cc1 | 2.18 µM | 6.22 µM | 1.54 µM | 3.42 µM | 1.18 µM | 2.56 µM | 1.32 µM | 3.46 µM | 1.87 µM | 4.01 µM | 4.04 µM | 24.4 µM | 1.48 µM | 2.94 µM | 2.24 µM | 7 µM | 1.47 µM | 9.77 µM | 2.42 µM | 10.1 µM |
| COc1ccc2c(c1)C(=O)c1c-2c(OCCN(C)C)nc2cc(OC)c(OC)cc12 | 12.1 µM | 28.3 µM | 0.762 µM | 13.4 µM | 0.658 µM | 9.37 µM | 2.93 µM | 34.7 µM | 18.9 µM | 35.4 µM | 12.8 µM | 35.7 µM | 51.5 µM | > 100 µM | 5.3 µM | > 100 µM | > 100 µM | > 100 µM | 3.76 µM | 65.9 µM |
| C[C@@H]1CCc2ncc(F)cc2[C@H]2CCCN2c2ccn3ncc(c3n2)C(=O)N1 | > 100 µM | > 100 µM |  | > 100 µM | 29.8 µM | > 100 µM | 73.7 µM | > 100 µM | > 100 µM | > 100 µM | 24.5 µM | > 100 µM | 69.5 µM | > 100 µM | 83.1 µM | > 100 µM | 86.1 µM | > 100 µM | > 100 µM | > 100 µM |
| CC(C)OP(=O)(O)c1ncc(-c2ccc(C(F)(F)F)cc2)c(NC2CCCCCC2)n1 | > 100 µM | > 100 µM | 68.8 µM | > 100 µM | > 100 µM | > 100 µM | > 100 µM | > 100 µM | > 100 µM | > 100 µM | > 100 µM | > 100 µM | 49.7 µM | > 100 µM | > 100 µM | > 100 µM | 34.9 µM | > 100 µM | 57.1 µM | > 100 µM |
